How the values were obtained:
[1] = system: HBsAg; assay: PHH assay for inhibition of HBsAg; type: cell-based, genotype D (AD38-derived) HBV in primary human hepatocytes; conditions: Hepatitis B virus, 288 h, read-out: HBsAg EC50
Description: Primary human hepatocytes (PHH) (Bioreclamation IVT) were plated on collagen-coated flasks using Plating Media (Life Technologies) containing William's Medium E supplemented with 1% penicillin/streptomycin, 4 μg/mL human recombinant insulin, 2 mM GlutaMAX, 15 mM HEPES, 1 μM dexamethasone, 5% fetal bovine serum, and 0.2% Torpedo Antibiotic Mix (Bioreclamation IVT). After a 4-hour incubation at 37° C., cells were switched to Maintenance Media (Life Technologies) containing William's Medium E supplemented with 0.5% penicillin/streptomycin, 6.25 µg/mL human recombinant insulin, 6.25 μg/mL human transferrin, 6.25 ng/mL selenous acid, 1.25 mg/mL bovine serum albumin, 5.35 μg/mL linoleic acid, 2 mM GlutaMAX, 15 mM HEPES, 0.1 μM dexamethasone, 2% fetal bovine serum, 2% DMSO, and 0.2% Torpedo Antibiotic Mix (Bioreclamation IVT). On the next day, PHH were infected with 500 genome equivalent per cell of genotype D (AD38-derived) HBV in Maintenance Media supplemented with 4% PEG 8000 (Promega). After 24 hour incubation, cells were washed three times with William's Medium E and fed with fresh Maintenance Media. At 3 days after infection, infected PHH cells were seeded on 96-well plates pre-coated with collagen at a density of 65000 cells per well containing serially diluted solutions of certain compounds disclosed herein or DMSO (1% final concentration) in a final volume of 125 μl of Maintenance Media (Life Technologies) containing William's Medium E supplemented with 0.5% penicillin/streptomycin, 6.25 μg/mL human recombinant insulin, 6.25 μg/mL human transferrin, 6.25 ng/mL selenous acid, 1.25 mg/mL bovine serum albumin, 5.35 μg/mL linoleic acid, 2 mM GlutaMAX, 15 mM HEPES, 0.1 μM dexamethasone, 5% fetal bovine serum, 1 mM 1-amininobenzotriaole, and 0.2% Torpedo Antibiotic Mix (Bioreclamation IVT). Media with compounds was replenished every 2-3 days. After an incubation time of 12 days, secreted HBsAg in the supernatant were measured using a multiplex chemiluminescent (Mesoscale discovery, MSD) assay using capture and detection antibody pairs specific for HBsAg. Comparative Example 1 and Comparative Example 2 have the following structures and were prepared according to International Publication No. WO 2015/113990.

[2] = MT-4 cytotoxicity assay; type: cell-based; conditions: human, five days incubation, Cell Titer Glo
Description: The MT-4 cell line (HTLV-1 transformed, human T lymphoblastoid cells) was obtained from the NIH AIDS Reagent program (Bethesda, Md.). MT-4 cells were maintained in RPMI-1640 supplemented with 10% fetal bovine serum (FBS, Hyclone, Logan, Utah). All cell culture media were also supplemented with 100 Units/mL penicillin, 100 μg/mL streptomycin (Gibco). For the MT-4 cytotoxicity assay, 0.4 μL of serially diluted solutions of certain compounds disclosed herein were added to 40 μL of cell maintenance media in 384-well black, solid bottom plate using a Biomek FX workstation (Beckman Coulter). Two thousand cells in 35 μL were added to each well using a Biotek uFlow Workstation (Biotek). Each assay plate contained 10 μM puromycin (final concentration) and 0.5% DMSO in RPMI-1640 as positive and negative controls, respectively. Assay plates were incubated for five days at 37° C. in an incubator set at 5% CO2 and 90% humidity. After five days, 22 μL of Cell Titer Glo reagent (Promega) was added to the assay plates with a Biotek uFlow Workstation. Plates were subsequently placed on a Perkin Elmer Envision Plate Reader for five minutes before the luminescence signal was read. CC50 values were calculated by non-linear regression using Pipeline Pilot software by applying a four parameter fit equation (Accelrys, San Diego, Calif.) and are reported in the following Table 2.

Which EC50 [1] does the source give for `COCCCOc1cc2c(cc1Cl)-c1cc(=O)c(C(=O)O)cn1N(C1(C(F)(F)F)CCC1)C2` [Example 4, 10-chloro-9-(3-methoxypropoxy)-2-oxo-6-(1-(trifluoromethyl)cyclobutyl)-6,7-dihydro-2H-pyrido[2,1-a]phthalazine-3-carboxylic acid] here?
The EC50 was 0.0112 µM.

And the CC50 at 5 days ([2]; MT-4 cells)?
The CC50 at 5 days was 8.1 µM.

Which EC50 [1] does the source give for `COCCCOc1cc2c(cc1OC)-c1cc(=O)c(C(=O)O)cn1N(C(C)(C)C(F)(F)F)C2` [Example 15, 10-methoxy-9-(3-methoxypropoxy)-2-oxo-6-(1,1,1-trifluoro-2-methylpropan-2-yl)-6,7-dihydro-2H-pyrido[2,1-a]phthalazine-3-carboxylic acid] here?
The EC50 was 0.0253 µM.

And the CC50 at 5 days ([2]; MT-4 cells)?
The CC50 at 5 days was over 10 µM.

Which results are given for `COCCCOc1cc2c(cc1Cl)-c1cc(=O)c(C(=O)O)cn1N(C1(C(F)(F)F)CC1)C2` [Example 3, 10-chloro-9-(3-methoxypropoxy)-2-oxo-6-(1-(trifluoromethyl)cyclopropyl)-6,7-dihydro-2H-pyrido[2,1-a]phthalazine-3-carboxylic acid]?
EC50 [1]: 0.0031 µM; CC50 at 5 days ([2]; MT-4 cells): > 10 µM

For `COCCCOc1cc2c(cc1Cl)-c1cc(=O)c(C(=O)O)cn1N(CC(C)(C)C)C2` [Example 18, 10-chloro-9-(3-methoxypropoxy)-6-neopentyl-2-oxo-6,7-dihydro-2H-pyrido[2,1-a]phthalazine-3-carboxylic acid], which EC50 [1] is on record?
Its EC50 is 0.168 µM.

What about the CC50 at 5 days ([2]; MT-4 cells) of the same compound?
Its CC50 at 5 days is over 10 µM.

Which EC50 [1] does the source give for `COCCCOc1cc2c(cc1Cl)-c1cc(=O)c(C(=O)O)cn1N(C(C)(C)CO)C2` [Example 16, 10-chloro-6-(1-hydroxy-2-methylpropan-2-yl)-9-(3-methoxypropoxy)-2-oxo-6,7-dihydro-2H-pyrido[2,1-a]phthalazine-3-carboxylic acid] here?
Its EC50 is 0.0669 µM.

And the CC50 at 5 days ([2]; MT-4 cells)?
The CC50 at 5 days was over 10 µM.

For `COCCCOc1cc2c(cc1OC)-c1cc(=O)c(C(=O)O)cn1N(C(C)(C)C)C2` [Example 10, 6-(tert-butyl)-10-methoxy-9-(3-methoxypropoxy)-2-oxo-6,7-dihydro-2H-pyrido[2,1-a]phthalazine-3-carboxylic acid], which EC50 [1] is on record?
Its EC50 is 0.0016 µM.

And the CC50 at 5 days ([2]; MT-4 cells)?
The CC50 at 5 days was over 10 µM.

Which results are given for `COCCCOc1cc2c(cc1Cl)-c1cc(=O)c(C(=O)O)cn1N(C)C2` [Example 1, 10-chloro-9-(3-methoxypropoxy)-6-methyl-2-oxo-6,7-dihydro-2H-pyrido[2,1-a]phthalazine-3-carboxylic acid]?
EC50 [1]: 0.363 µM; CC50 at 5 days [2]: 8.9 µM

Which results are given for `COCCCOc1cc2c(cc1Cl)-c1cc(=O)c(C(=O)O)cn1N(C1(C)CCC1)C2` [Example 7, 10-chloro-9-(3-methoxypropoxy)-6-(1-methylcyclobutyl)-2-oxo-6,7-dihydro-2H-pyrido[2,1-a]phthalazine-3-carboxylic acid]?
EC50 [1]: 0.0068 µM; CC50 at 5 days ([2]; MT-4 cells): > 10 µM

What does the source list for `COCCCOc1cc2c(cc1OC)-c1cc(=O)c(C(=O)O)cn1N(C1(C(F)(F)F)CC1)C2` [Example 14, 10-methoxy-9-(3-methoxypropoxy)-2-oxo-6-(1-(trifluoromethyl)cyclopropyl)-6,7-dihydro-2H-pyrido[2,1-a]phthalazine-3-carboxylic acid]?
EC50 [1]: 0.0087 µM; CC50 at 5 days ([2]; MT-4 cells): > 10 µM

With `COCCCOc1cc2c(cc1OC)-c1cc(=O)c(C(=O)O)cn1N(C(C)(C)COC)C2` [Example 11, 10-methoxy-6-(1-methoxy-2-methylpropan-2-yl)-9-(3-methoxypropoxy)-2-oxo-6,7-dihydro-2H-pyrido[2,1-a]phthalazine-3-carboxylic acid] as the compound, how does the CC50 at 5 days ([2]; MT-4 cells) read?
Its CC50 at 5 days is over 10 µM.

Which CC50 at 5 days ([2]; MT-4 cells) does the source give for `COCCCOc1cc2c(cc1Cl)-c1cc(=O)c(C(=O)O)cn1N(C(C)(C)C(F)(F)F)C2` [Example 9, 10-chloro-9-(3-methoxypropoxy)-2-oxo-6-(1,1,1-trifluoro-2-methylpropan-2-yl)-6,7-dihydro-2H-pyrido[2,1-a]phthalazine-3-carboxylic acid] here?
Its CC50 at 5 days is over 10 µM.

For `CCC(C)(C)N1Cc2cc(OCCCOC)c(Cl)cc2-c2cc(=O)c(C(=O)O)cn21` [Example 17, 10-chloro-9-(3-methoxypropoxy)-2-oxo-6-(tert-pentyl)-6,7-dihydro-2H-pyrido[2,1-a]phthalazine-3-carboxylic acid], which EC50 [1] is on record?
Its EC50 is 0.0295 µM.

And the CC50 at 5 days ([2]; MT-4 cells)?
The CC50 at 5 days was over 10 µM.

For `COCCCOc1cc2c(cc1Cl)-c1cc(=O)c(C(=O)O)cn1N(C1(C)CC1)C2` [Example 6, 10-chloro-9-(3-methoxypropoxy)-6-(1-methylcyclopropyl)-2-oxo-6,7-dihydro-2H-pyrido[2,1-a]phthalazine-3-carboxylic acid], which CC50 at 5 days ([2]; MT-4 cells) is on record?
The CC50 at 5 days was over 10 µM.

What does the source list for `COCCCOc1cc2c(cc1Cl)-c1cc(=O)c(C(=O)O)cn1N(C13CC(C1)C3)C2` [Example 5, 6-(bicyclo[1.1.1]pentan-1-yl)-10-chloro-9-(3-methoxypropoxy)-2-oxo-6,7-dihydro-2H-pyrido[2,1-a]phthalazine-3-carboxylic acid]?
EC50 [1]: 0.004 µM; CC50 at 5 days ([2]; MT-4 cells): > 10 µM

Which EC50 [1] does the source give for `COCCCOc1cc2c(cc1Cl)-c1cc(=O)c(C(=O)O)cn1N(C(C)(C)COC)C2` [Example 8, 10-chloro-6-(1-methoxy-2-methylpropan-2-yl)-9-(3-methoxypropoxy)-2-oxo-6,7-dihydro-2H-pyrido[2,1-a]phthalazine-3-carboxylic acid] here?
Its EC50 is 0.011 µM.

And the CC50 at 5 days ([2]; MT-4 cells)?
Its CC50 at 5 days is over 10 µM.

What does the source list for `CC(C)(C)N1Cc2cc(OCCOCC(F)(F)F)c(Cl)cc2-c2cc(=O)c(C(=O)O)cn21` [Example 13, 6-(tert-butyl)-10-chloro-2-oxo-9-(2-(2,2,2-trifluoroethoxy)ethoxy)-6,7-dihydro-2H-pyrido[2,1-a]phthalazine-3-carboxylic acid]?
EC50 [1]: 0.0588 µM; CC50 at 5 days ([2]; MT-4 cells): 5.2 µM

Which EC50 [1] does the source give for `[2H]C([2H])([2H])OCCCOc1cc2c(cc1Cl)-c1cc(=O)c(C(=O)O)cn1N(C(C)(C)C)C2` [Example 12, 6-(tert-butyl)-10-chloro-9-(3-(methoxy-d3)propoxy)-2-oxo-6,7-dihydro-2H-pyrido[2,1-a]phthalazine-3-carboxylic acid] here?
Its EC50 is 0.0077 µM.

And the CC50 at 5 days ([2]; MT-4 cells)?
The CC50 at 5 days was 9.3 µM.

What does the source list for `COCCCOc1cc2c(cc1Cl)-c1cc(=O)c(C(=O)O)cn1N(C1(C)CC(F)(F)C1)C2` [Example 19, 10-chloro-6-(3,3-difluoro-1-methylcyclobutyl)-9-(3-methoxypropoxy)-2-oxo-6,7-dihydro-2H-pyrido[2,1-a]phthalazine-3-carboxylic acid]?
EC50 [1]: 0.0992 µM; CC50 at 5 days ([2]; MT-4 cells): > 10 µM
